Assay results from ChEMBL document CHEMBL1201862, “PubChem BioAssay data set” (2004).
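96-well plates; 48 h exposure; 5 concentrations. Endpoints by linear interpolation between flanking doses. Not reached: highest tested concentration assigned. GI50 is the concentration that inhibits growth by half.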 Active and inactive are the calls of the source. Cut-off read from the data, not from the text of the source: active = GI50 up to about 1.1 µM and inactive = higher.

What was measured:
Assay in all cases: DTP human tumour cell line panel, 48 h
[1] = tested on: CAKI-1
[2] = tested on: UO-31
[3] = tested on: IGROV-1
[4] = tested on: UACC-62
[5] = tested on: EKVX
[6] = tested on: CCRF-CEM
[7] = tested on: KM12
[8] = tested on: NCI-H23
[9] = tested on: HCC 2998
[10] = tested on: NCI-H460
[11] = tested on: KM-20L2
[12] = tested on: OVCAR-5
[13] = tested on: MCF7
[14] = tested on: K562
[15] = tested on: HT-29
[16] = tested on: HOP-18
[17] = tested on: A498
[18] = tested on: Malme-3M
[19] = tested on: HCT-116
[20] = tested on: SF-539
[21] = tested on: NCI-H226
[22] = tested on: OVCAR-3
[23] = tested on: U-251
[24] = tested on: MOLT-4
[25] = tested on: SN12C
[26] = tested on: SK-MEL-5
[27] = tested on: SK-OV-3
[28] = tested on: HL-60
[29] = tested on: SF-295
[30] = tested on: SK-MEL-28
[31] = tested on: NCI-H522
[32] = tested on: UACC-257
[33] = tested on: NCI/ADR-RES
[34] = tested on: DLD-1
[35] = tested on: SNB-19
[36] = tested on: DMS-273
[37] = tested on: RPMI-8226
[38] = tested on: SNB-75
[39] = tested on: SW-620
[40] = tested on: SK-MEL-2
[41] = tested on: OVCAR-4
[42] = tested on: HCT-15
[43] = tested on: RXF 393
[44] = tested on: DMS-114
[45] = tested on: LOX IMVI
[46] = tested on: OVCAR-8
[47] = tested on: COLO 205
[48] = tested on: XF498
[49] = tested on: M19-MEL
[50] = tested on: HOP-92
[51] = tested on: A549
[52] = tested on: SNB-78
[53] = tested on: SF-268
[54] = tested on: HOP-62

O=C(O)c1cn2c3c(cc(N4CCN(CCO)CC4)cc3c1=O)SCC2 was tested, and the GI50 [1] was > 100000 nM (inactive), the GI50 [2] was > 100000 nM (inactive) and the GI50 [3] was > 100000 nM (inactive). For the same compound, the GI50 [4] was > 78200 nM (inactive), the GI50 [5] was > 100000 nM (inactive) and the GI50 [6] was 48800 nM (inactive). The GI50 [7] was > 76900 nM (inactive), the GI50 [8] was 57500 nM (inactive) and the GI50 [9] was 33000 nM (inactive). The GI50 [10] was > 95700 nM (inactive), the GI50 [11] was > 100000 nM (inactive) and the GI50 [12] was > 75500 nM (inactive). The GI50 [13] was 29700 nM (inactive), the GI50 [14] was 65900 nM (inactive) and the GI50 [15] was > 100000 nM (inactive). For the same compound, the GI50 [16] was > 79300 nM (inactive), the GI50 [17] was > 100000 nM (inactive) and the GI50 [18] was 37200 nM (inactive). For the same compound, the GI50 [19] was > 100000 nM (inactive), the GI50 [20] was 46100 nM (inactive) and the GI50 [21] was 63800 nM (inactive). For the same compound, the GI50 [22] was 58600 nM (inactive), the GI50 [23] was > 95900 nM (inactive) and the GI50 [24] was 53800 nM (inactive). For the same compound, the GI50 [25] was 47100 nM (inactive), the GI50 [26] was > 100000 nM (inactive) and the GI50 [27] was > 100000 nM (inactive). The GI50 [28] was > 100000 nM (inactive), the GI50 [29] was > 100000 nM (inactive) and the GI50 [30] was > 100000 nM (inactive). The GI50 [31] was 26500 nM (inactive), the GI50 [32] was > 100000 nM (inactive) and the GI50 [33] was > 89700 nM (inactive). For the same compound, the GI50 [34] was > 100000 nM (inactive), the GI50 [35] was 96200 nM (inactive) and the GI50 [36] was > 100000 nM (inactive). The GI50 [37] was > 100000 nM (inactive), the GI50 [38] was 30700 nM (inactive) and the GI50 [39] was > 100000 nM (inactive). The GI50 [40] was 48400 nM (inactive), the GI50 [41] was > 60800 nM (inactive) and the GI50 [42] was > 100000 nM. The GI50 [43] was > 100000 nM (inactive), the GI50 [44] was 51300 nM (inactive) and the GI50 [45] was 71100 nM (inactive). The GI50 [46] was 62800 nM (inactive), the GI50 [47] was > 100000 nM (inactive) and the GI50 [48] was 23200 nM (inactive). The GI50 [49] was > 80700 nM (inactive), the GI50 [50] was 59600 nM (inactive) and the GI50 [51] was > 100000 nM (inactive). The GI50 [52] was > 79800 nM (inactive), the GI50 [53] was 47300 nM (inactive) and the GI50 [54] was 48400 nM (inactive).

In the case of CC[C@@]1(O)C[C@H](OC2CC(N(C)C)C(O)C(C)O2)c2c(cc3c(c2O)C(=O)c2c(O)ccc(O)c2C3=O)[C@H]1C(=O)OC (stereo partly drawn), the GI50 [1] is reported as 27 nM (active), the GI50 [2] is reported as 158 nM (active) and the GI50 [3] is reported as 46.8 nM (active). The GI50 [4] was 45.1 nM (active), the GI50 [5] was 135 nM (active) and the GI50 [6] was 24.2 nM (active). For the same compound, the GI50 [7] was 63.5 nM (active), the GI50 [8] was 110 nM (active) and the GI50 [9] was 162 nM (active). The GI50 [10] was 22.1 nM (active), the GI50 [11] was 70.2 nM (active) and the GI50 [12] was 141 nM (active). The GI50 [13] was 88.5 nM (active), the GI50 [14] was 29.2 nM (active) and the GI50 [15] was 38.8 nM (active). The GI50 [16] was 212 nM (active), the GI50 [17] was 44.8 nM (active) and the GI50 [18] was 80.7 nM (active). The GI50 [19] was 22.9 nM (active), the GI50 [20] was 89.5 nM (active) and the GI50 [21] was 108 nM (active). For the same compound, the GI50 [22] was 149 nM (active), the GI50 [23] was 40.5 nM (active) and the GI50 [24] was 25.2 nM (active). The GI50 [25] was 37.7 nM (active), the GI50 [26] was 93.8 nM (active) and the GI50 [27] was 236 nM (active). The GI50 [28] was 45.7 nM (active), the GI50 [29] was 32 nM (active) and the GI50 [30] was 148 nM (active). For the same compound, the GI50 [31] was 52.1 nM (active), the GI50 [32] was 86.3 nM (active) and the GI50 [33] was 52.6 nM (active). For the same compound, the GI50 [34] was 51.4 nM (active), the GI50 [35] was 99.1 nM (active) and the GI50 [36] was 21.3 nM (active). For the same compound, the GI50 [37] was 36.4 nM (active), the GI50 [38] was 82.6 nM (active) and the GI50 [39] was 26.7 nM (active). For the same compound, the GI50 [40] was 101 nM (active), the GI50 [41] was 29 nM (active) and the GI50 [42] was 45.2 nM. The GI50 [43] was 36.6 nM (active), the GI50 [44] was 119 nM (active) and the GI50 [45] was 22.9 nM (active). For the same compound, the GI50 [46] was 23.9 nM (active), the GI50 [47] was 46.7 nM (active) and the GI50 [48] was 106 nM (active). For the same compound, the GI50 [49] was 46.1 nM (active), the GI50 [50] was 256 nM (active) and the GI50 [51] was 36.5 nM (active). The GI50 [52] was 153 nM (active), the GI50 [53] was 53.6 nM (active) and the GI50 [54] was 107 nM (active).
